{"source": "ChEMBL document CHEMBL1143809", "about": "“New bis-N9-(methylphenylmethyl)purine derivatives: synthesis and antitumor activity” (2007)", "assay_type_in_all_cases": "functional", "key": {"M14": {"system": "M14", "assay": "Growth inhibition of human M14 cells after 48 hrs by SRB protein assay", "settings": "M14, 48 h"}, "SK-MEL-5": {"system": "SK-MEL-5", "assay": "Growth inhibition of human SK-MEL-5 cells after 48 hrs by SRB protein assay", "settings": "SK-MEL-5, 48 h"}, "UACC-257": {"system": "UACC-257", "assay": "Growth inhibition of human UACC257 cells after 48 hrs by SRB protein assay", "settings": "UACC-257, 48 h"}, "UACC-62": {"system": "UACC-62", "assay": "Growth inhibition of human UACC62 cells after 48 hrs by SRB protein assay", "settings": "UACC-62, 48 h"}, "OVCAR-4": {"system": "OVCAR-4", "assay": "Growth inhibition of human OVCAR4 cells after 48 hrs by SRB protein assay", "settings": "OVCAR-4, 48 h"}, "RPMI-8226": {"system": "RPMI-8226", "assay": "Growth inhibition of human RPMI8226 cells after 48 hrs by SRB protein assay", "settings": "RPMI-8226, 48 h"}, "HOP-62": {"system": "HOP-62", "assay": "Growth inhibition of human HOP62 cells after 48 hrs by SRB protein assay", "settings": "HOP-62, 48 h"}, "[1]": {"assay": "Growth inhibition of human NCL-H23 cells after 48 hrs by SRB protein assay", "settings": "NCL-H23, 48 h"}, "COLO 205": {"system": "COLO 205", "assay": "Growth inhibition of human COLO205 cells after 48 hrs by SRB protein assay", "settings": "COLO 205, 48 h"}, "HCC 2998": {"system": "HCC 2998", "assay": "Growth inhibition of human HCC2998 cells after 48 hrs by SRB protein assay", "settings": "HCC 2998, 48 h"}, "HCT-15": {"system": "HCT-15", "assay": "Growth inhibition of human HCT15 cells after 48 hrs by SRB protein assay", "settings": "HCT-15, 48 h"}, "HT-29": {"system": "HT-29", "assay": "Growth inhibition of human HT29 cells after 48 hrs by SRB protein assay", "settings": "HT-29, 48 h"}, "KM12": {"system": "KM12", "assay": "Growth inhibition of human KM12 cells after 48 hrs by SRB protein assay", "settings": "KM12, 48 h"}, "SW-620": {"system": "SW-620", "assay": "Growth inhibition of human SW620 cells after 48 hrs by SRB protein assay", "settings": "SW-620, 48 h"}, "SF-268": {"system": "SF-268", "assay": "Growth inhibition of human SF268 cells after 48 hrs by SRB protein assay", "settings": "SF-268, 48 h"}, "SNB-75": {"system": "SNB-75", "assay": "Growth inhibition of human SNB75 cells after 48 hrs by SRB protein assay", "settings": "SNB-75, 48 h"}, "U-251": {"system": "U-251", "assay": "Growth inhibition of human U251 cells after 48 hrs by SRB protein assay", "settings": "U-251, 48 h"}, "[2]": {"assay": "Growth inhibition of human LOX MIVI cells after 48 hrs by SRB protein assay"}, "SK-OV-3": {"system": "SK-OV-3", "assay": "Growth inhibition of human SK-OV-3 cells after 48 hrs by SRB protein assay", "settings": "SK-OV-3, 48 h"}, "786-0": {"system": "786-0", "assay": "Growth inhibition of human 786-0 cells after 48 hrs by SRB protein assay", "settings": "786-0, 48 h"}, "A498": {"system": "A498", "assay": "Growth inhibition of human A498 cells after 48 hrs by SRB protein assay", "settings": "A498, 48 h"}, "CAKI-1": {"system": "CAKI-1", "assay": "Growth inhibition of human CAKI1 cells after 48 hrs by SRB protein assay", "settings": "CAKI-1, 48 h"}, "RXF 393": {"system": "RXF 393", "assay": "Growth inhibition of human RXF393 cells after 48 hrs by SRB protein assay", "settings": "RXF 393, 48 h"}, "PC-3": {"system": "PC-3", "assay": "Growth inhibition of human PC3 cells after 48 hrs by SRB protein assay", "settings": "PC-3, 48 h"}, "MDA-MB-231": {"system": "MDA-MB-231", "assay": "Growth inhibition of human MDA-MB-231 cells after 48 hrs by SRB protein assay", "settings": "MDA-MB-231, 48 h"}, "[3]": {"settings": "read-out: LC50 (the source's name)"}}, "data": [{"smiles": "Clc1nc(Cl)c2ncn(Cc3ccccc3Cn3cnc4c(Cl)nc(Cl)nc43)c2n1", "values": [{"measurement": "GI50", "setting": "M14", "result": 15.8, "unit": "µM"}, {"measurement": "LC50", "setting": "M14", "result": 61.7, "unit": "µM"}, {"measurement": "TGI", "setting": "M14", "result": 38.9, "unit": "µM"}, {"measurement": "GI50", "setting": "SK-MEL-5", "result": 2.24, "unit": "µM"}, {"measurement": "LC50", "setting": "SK-MEL-5", "result": 22.9, "unit": "µM"}, {"measurement": "TGI", "setting": "SK-MEL-5", "result": 6.17, "unit": "µM"}, {"measurement": "GI50", "setting": "UACC-257", "result": 7.94, "unit": "µM"}, {"measurement": "TGI", "setting": "UACC-257", "result": 23.4, "unit": "µM"}, {"measurement": "CC50", "setting": "UACC-257; [3]", "result": 61.7, "unit": "µM"}, {"measurement": "GI50", "setting": "UACC-62", "result": 1.74, "unit": "µM"}, {"measurement": "LC50 (concentration killing 50% of cells)", "setting": "UACC-62", "result": 6.61, "unit": "µM"}, {"measurement": "TGI", "setting": "UACC-62", "result": 3.39, "unit": "µM"}, {"measurement": "GI50", "setting": "OVCAR-4", "result": 2.09, "unit": "µM"}, {"measurement": "LC50", "setting": "OVCAR-4", "result": 8.71, "unit": "µM"}, {"measurement": "TGI", "setting": "OVCAR-4", "result": 4.23, "unit": "µM"}, {"measurement": "GI50", "setting": "RPMI-8226", "result": 0.55, "unit": "µM"}, {"measurement": "TGI", "setting": "RPMI-8226", "result": 2.34, "unit": "µM"}, {"measurement": "GI50", "setting": "HOP-62", "result": 21.9, "unit": "µM"}, {"measurement": "LC50", "setting": "HOP-62", "result": 72.4, "unit": "µM"}, {"measurement": "TGI", "setting": "HOP-62", "result": 39.8, "unit": "µM"}, {"measurement": "GI50", "setting": "[1]", "result": 15.5, "unit": "µM"}, {"measurement": "LC50", "setting": "[1]", "result": 67.6, "unit": "µM"}, {"measurement": "TGI", "setting": "[1]", "result": 32.4, "unit": "µM"}, {"measurement": "GI50", "setting": "COLO 205", "result": 3.16, "unit": "µM"}, {"measurement": "LC50", "setting": "COLO 205", "result": "> 100", "unit": "µM"}, {"measurement": "TGI", "setting": "COLO 205", "result": "> 100", "unit": "µM"}, {"measurement": "LC50", "setting": "HCC 2998", "result": 21.4, "unit": "µM"}, {"measurement": "TGI", "setting": "HCC 2998", "result": 4.9, "unit": "µM"}, {"measurement": "GI50", "setting": "HCT-15", "result": 1.86, "unit": "µM"}, {"measurement": "LC50", "setting": "HCT-15", "result": 12.6, "unit": "µM"}, {"measurement": "TGI", "setting": "HCT-15", "result": 4.47, "unit": "µM"}, {"measurement": "GI50", "setting": "HT-29", "result": 3.31, "unit": "µM"}, {"measurement": "LC50", "setting": "HT-29", "result": "> 100", "unit": "µM"}, {"measurement": "TGI", "setting": "HT-29", "result": "> 100", "unit": "µM"}, {"measurement": "GI50", "setting": "KM12", "result": 3.31, "unit": "µM"}, {"measurement": "LC50 (concentration killing 50% of cells)", "setting": "KM12", "result": 34.7, "unit": "µM"}, {"measurement": "TGI", "setting": "KM12", "result": 10, "unit": "µM"}, {"measurement": "GI50", "setting": "SW-620", "result": 1.86, "unit": "µM"}, {"measurement": "TGI", "setting": "SW-620", "result": 3.98, "unit": "µM"}, {"measurement": "CC50", "setting": "SW-620; [3]", "result": 8.32, "unit": "µM"}, {"measurement": "GI50", "setting": "SF-268", "result": 6.76, "unit": "µM"}, {"measurement": "LC50", "setting": "SF-268", "result": 95.5, "unit": "µM"}, {"measurement": "TGI", "setting": "SF-268", "result": 26.9, "unit": "µM"}, {"measurement": "GI50", "setting": "SNB-75", "result": 5.13, "unit": "µM"}, {"measurement": "TGI", "setting": "SNB-75", "result": 21.9, "unit": "µM"}, {"measurement": "CC50", "setting": "SNB-75; [3]", "result": 81.3, "unit": "µM"}, {"measurement": "GI50", "setting": "U-251", "result": 1.78, "unit": "µM"}, {"measurement": "TGI", "setting": "U-251", "result": 3.55, "unit": "µM"}, {"measurement": "CC50", "setting": "U-251; [3]", "result": 69.2, "unit": "µM"}, {"measurement": "GI50", "setting": "[2]", "result": 1.15, "unit": "µM"}, {"measurement": "LC50", "setting": "[2]", "result": 6.61, "unit": "µM"}, {"measurement": "TGI", "setting": "[2]", "result": 2.75, "unit": "µM"}, {"measurement": "GI50", "setting": "SK-OV-3", "result": 11.5, "unit": "µM"}, {"measurement": "TGI", "setting": "SK-OV-3", "result": 31.6, "unit": "µM"}, {"measurement": "CC50", "setting": "SK-OV-3; [3]", "result": 87.1, "unit": "µM"}, {"measurement": "GI50", "setting": "786-0", "result": 10, "unit": "µM"}, {"measurement": "TGI", "setting": "786-0", "result": 25.1, "unit": "µM"}, {"measurement": "CC50", "setting": "786-0; [3]", "result": 63.1, "unit": "µM"}, {"measurement": "GI50", "setting": "A498", "result": 17, "unit": "µM"}, {"measurement": "TGI", "setting": "A498", "result": 33.9, "unit": "µM"}, {"measurement": "CC50", "setting": "A498; [3]", "result": 67.6, "unit": "µM"}, {"measurement": "GI50", "setting": "CAKI-1", "result": 1.73, "unit": "µM"}, {"measurement": "TGI", "setting": "CAKI-1", "result": 3.09, "unit": "µM"}, {"measurement": "CC50", "setting": "CAKI-1; [3]", "result": 5.62, "unit": "µM"}, {"measurement": "TGI", "setting": "RXF 393", "result": 3.47, "unit": "µM"}, {"measurement": "CC50", "setting": "RXF 393; [3]", "result": 7.08, "unit": "µM"}, {"measurement": "GI50", "setting": "PC-3", "result": 2.24, "unit": "µM"}, {"measurement": "TGI", "setting": "PC-3", "result": 6.76, "unit": "µM"}, {"measurement": "CC50", "setting": "PC-3; [3]", "result": 38.9, "unit": "µM"}, {"measurement": "GI50", "setting": "MDA-MB-231", "result": 1.82, "unit": "µM"}, {"measurement": "LC50 (50% lethal concentration)", "setting": "MDA-MB-231", "result": 6.46, "unit": "µM"}, {"measurement": "TGI", "setting": "MDA-MB-231", "result": 3.39, "unit": "µM"}]}]}
